Reference: patent US12152038B2, “Vasopressin receptor antagonists and products and methods related thereto” (Neumora Therapeutics, Inc., priority 2017, dated 2024)

What was measured:
[1] = target: T1, human Arginine Vasopressin Receptor 1a (AVPR1a) (Homo sapiens, UniProt P37288); assay: Vasopressin V1a receptor antagonist assay (FLIPR calcium, CHO-AVPR1a cells); type: cell-based
T1 construct: expressed in transfected cells; host or cells: CHO (CHO-AVPR1a, kept under G418 selection)
Method in brief: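 CHO cells expressing human AVPR1a were loaded with Calcium-6 dye and preincubated with compound for 15 min at 37° C. Cells were then challenged with AVP at its daily-determined EC80, and FLIPR fluorescence was read. Compounds were tested in duplicate as 10-point 1:3 dilutions from a top final concentration of 3 μM.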

[2] = target: T2, human Oxytocin Receptor (hOTR) (Homo sapiens, UniProt P30559); assay: Oxytocin receptor (OTR) antagonist assay (FLIPR calcium, CHEM-1-hOTR cells); type: cell-based
T2 construct: host or cells: CHEM-1 (ready-to-assay frozen cells)
T2 sequence (P30559 1-389): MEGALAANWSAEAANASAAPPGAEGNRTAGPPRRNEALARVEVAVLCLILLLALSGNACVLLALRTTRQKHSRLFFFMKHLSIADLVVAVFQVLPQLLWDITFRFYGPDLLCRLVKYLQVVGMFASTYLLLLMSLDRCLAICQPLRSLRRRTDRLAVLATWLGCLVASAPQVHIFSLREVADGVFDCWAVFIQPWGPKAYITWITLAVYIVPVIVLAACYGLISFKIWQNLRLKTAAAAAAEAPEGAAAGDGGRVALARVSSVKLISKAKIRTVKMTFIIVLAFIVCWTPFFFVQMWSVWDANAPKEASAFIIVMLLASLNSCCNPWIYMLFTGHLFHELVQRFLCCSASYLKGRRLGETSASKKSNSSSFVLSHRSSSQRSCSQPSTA
Description: This assay was performed in CHEM-1 cells expressing the human Oxytocin Receptor (hOTR) to determine the inhibitory effect of the compounds of the invention on the human Oxytocin receptor. Oxytocin evokes an increase in intracellular calcium in CHEM-1-hOTR cells which is measured in a fluorescence assay on the FLIPR^TETRA using calcium sensitive dyes. Test compounds were assessed for their ability to affect the magnitude of the response to oxytocin, with antagonists showing a concentration-dependent reduction in the oxytocin-mediated fluorescence.
CHEM-1-hOTR ready was used to assay frozen cells (Eurofins #HTS09ORTA) which are supplied with a proprietary Media Component.
Day 1 of the assay: Cells were thawed in a 37° C. water bath and diluted with the supplied Media Component to a final volume of 10 ml. The cell suspension was centrifuged at 1000 rpm for 3 min at room temperature and the supernatant was discarded. The cell pellet was resuspended in Media Component (10.5 ml) and the cells (25 μL) were dispensed into a poly-D-lysine coated black, clear bottomed, 384-well plate. The plates were incubated overnight at 37° C., 5% CO2.
Day 2: At the start of each assay day the potency of oxytocin was assessed and an EC80 concentration was determined for subsequent compound profiling. Assays were performed using a two-step addition protocol on the FLIPR^TETRA; first addition of 5 μl of control or test compound at 10× final in assay buffer with 15 min incubation at 37° C., 5% CO2 followed by 10 μl of oxytocin at 6× final concentration in assay buffer. Changes in fluorescence were monitored for 3 min after both additions on the FLIPR^TETRA using 470-495 nm excitation and 515-575 nm emission wavelengths. The assay buffer consisted of HBSS (+Ca/+Mg) supplemented with 20 mM HEPES, and for the preparation of the oxytocin agonist only, 0.1% w/v bovine serum albumin. The assay was initiated by the removal of growth media from the cells and replaced with 45 μl of Calcium-6 dye (Molecular Devices) prepared at 1× in assay buffer. Cells were loaded with dye for 60-90 min at 37° C., 5% CO2 before initiation of the FLIPR^TETRA protocol. […] For compound profiling, test compounds were first serially diluted in DMSO (10-point curve, 1:3 dilutions) then diluted 33.3-fold in assay buffer prior to addition to the dye loaded cells on the FLIPR^TETRA. At the end of the incubation period 10 μl of oxytocin in assay buffer containing 0.1% BSA was added at the previously determined EC80 concentration.
In-plate controls for the assay included a L-368,899 concentration-response curve as the reference OTR antagonist and an oxytocin concentration-response curve to confirm the reproducibility of the EC80 used for the compound challenge.

V1a receptors = target: T3, V1a receptors (Rattus norvegicus, UniProt P30560); assay: AVP induced phospho-ERK measurement in rat choroid plexus (RCP) cells; type: cell-based; conditions: RCP cells stimulated with AVP, pERK1/2 to total ERK1/2 ratio
T3 construct: Rat choroid plexus (RCP) cell lines express functional V1a receptors; endogenous in cells; host or cells: rat choroid plexus (RCP) cell line, RCP P9(18)
Description: Rat choroid plexus (RCP) cell lines express functional V1a receptors measured by increased calcium concentrations in response to V1a receptor agonists (Battle et al., Biochem. Biophys. Res. Comm. 2000).
RCP P9(18) cells were seeded 30K/well, in 100 μl growth medium containing 10% FBS in polystyrene 96-well plates and incubated at 37° C., 5% CO2 and incubated overnight. The following day, the growth medium was replaced with 50 μl pre-warmed HBSS containing 20 mM HEPES and the cells were incubated at 37° C., 5% CO2 for 1.5 hrs. 1 mM AVP (Sigma V9879) was freshly prepared in distilled water in a glass vial and diluted to 3× concentrations in HBSS containing 20 mM HEPES and 0.1% BSA in glass vials and kept on ice. […] Final concentrations of AVP: 10, 100 or 1000 nM. […] Cells were lysed with 25 μl 4×CST lysis buffer containing protease and phosphatase inhibitors, PMSF and SDS and then stored at −80° C., for 48 h. The lysates were thawed, centrifuged at 2000 g for 30 min at 4° C. and 40 μl supernatants assayed for pERK1/2 (Thr202/Tyr204; Thr185/Tyr187) and total ERK1/2 using MSD kit K15107D. The MSD ECL data for the lysates were corrected for no cell blanks, then phospho-protein levels expressed as a ratio to the total ERK1/2 level. The ratios were expressed as fold-change from the vehicle-treated control at each timepoint.

Male CD-1 mice = assay: AVP induced scratching, digging and grooming behavior in mouse; type: in vivo; conditions: 100 mg/kg, po; AVP i.c.v.; 15 minutes observation
Excerpt: Administration of Arginine-Vasopressin (AVP) intracerebroventricularly (i.c.v.) elicits characteristic scratching, digging and grooming behavior in mice that can be measured readily and is sensitive to blockade with vasopressin antagonists (Meisenberg, Ann N Y Acad Sci. 525:257-69, 1988; Bleickardt et. al., Psychopharmacology (Berl). 202(4):711-8, 2009).
Male CD-1 mice (Charles River Germany) weighing 22-25 g upon the study in-life were used for this study. Animals were housed in groups of 4-5 per cage in standard temperature (22±1° C.) and light-controlled environment (lights on from 7 am to 8 pm), with ad libitum access to food and water. Prior to commencing any procedures to the mice, they were allowed to habituate in the vivarium for a minimum of 7 days. Anesthesia was induced in a plexiglass chamber for 2-3 min with 5% isoflurane and maintained through a snout mask with 1-2% isoflurane thereafter. A homeothermic blanket system with a rectal probe was used to monitor and maintain the animal's body temperature at 37.0° C.±1.5° C. during the operation. Anesthetized mice were placed in a stereotaxic apparatus and skin between the ears shaved and disinfected with povidone-iodine solution (Betadine). A 10-μl Hamilton syringe with 28-gauge needle was used for the i.c.v. injections. All animals receive identical AVP injections (3.689 μM) or sterile saline (0.9% sodium chloride solution) into the right lateral ventricle at the following coordinates: AP=+0.5 mm; ML=+1.0 mm; DV=−2.5 mm (approximately from bregma). The actual coordinates were calculated by the distance from the point in midline between the eyes and no skin incision was made. […]
Mice were observed and video-recorded for 15 minutes following AVP/saline administration and behaviors were measured (in seconds) and a cumulative time was calculated. […] Using this assay, balovaptan (100 and 300 mg/kg, po), JNJ-17308616 (30, 100 mg/kg, po) and Compound No. 1-83B (100, 300, 500 mg/kg, po) were evaluated for antagonist activity to AVP-induced scratching behaviors.

T3 sequence (P30560 whole entry): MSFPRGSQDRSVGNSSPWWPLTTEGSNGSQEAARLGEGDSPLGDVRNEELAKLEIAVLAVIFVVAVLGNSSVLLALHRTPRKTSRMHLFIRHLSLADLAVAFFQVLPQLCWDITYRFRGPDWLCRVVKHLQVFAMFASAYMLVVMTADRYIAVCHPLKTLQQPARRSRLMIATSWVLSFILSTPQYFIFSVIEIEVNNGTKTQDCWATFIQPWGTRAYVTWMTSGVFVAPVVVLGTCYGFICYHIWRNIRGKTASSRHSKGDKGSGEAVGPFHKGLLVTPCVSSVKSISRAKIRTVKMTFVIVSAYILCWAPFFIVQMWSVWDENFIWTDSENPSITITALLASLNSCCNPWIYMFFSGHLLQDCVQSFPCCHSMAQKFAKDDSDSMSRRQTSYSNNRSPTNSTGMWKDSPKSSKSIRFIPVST
T1 sequence (P37288 whole entry): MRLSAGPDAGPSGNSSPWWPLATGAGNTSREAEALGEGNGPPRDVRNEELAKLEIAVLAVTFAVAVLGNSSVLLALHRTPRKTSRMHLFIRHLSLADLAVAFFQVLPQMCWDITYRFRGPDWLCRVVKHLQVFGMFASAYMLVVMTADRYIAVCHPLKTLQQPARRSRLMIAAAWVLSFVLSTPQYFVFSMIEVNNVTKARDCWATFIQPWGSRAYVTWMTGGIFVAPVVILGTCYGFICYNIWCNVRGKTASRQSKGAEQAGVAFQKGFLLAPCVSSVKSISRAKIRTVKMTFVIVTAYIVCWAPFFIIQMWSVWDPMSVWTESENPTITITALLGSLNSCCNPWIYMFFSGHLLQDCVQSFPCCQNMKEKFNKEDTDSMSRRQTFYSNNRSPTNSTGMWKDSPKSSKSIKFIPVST

IC50 [1] [nM] | IC50 [2] [nM] | IC50 (V1a receptors; first study) [nM] | IC50 (V1a receptors; second study) [nM] | Compound | antagonist activity to AVP-induced scratching behaviors (Male CD-1 mice)
≥ 1000 | < 100 |  |  | CC1COc2cc(Cl)ccc2N1C(=O)N1CC2(C1)CN(c1ncccc1F)C2 (single isomer, unassigned) [1-57-B] | 
 |  | 10.9 | 13.6 | CN1Cc2cc(Cl)ccc2-n2c(nnc2[C@H]2CC[C@H](Oc3ccccn3)CC2)C1 [balovaptan, reference compound] | effective
≥ 1000 | ≥ 1000 |  |  | Cc1cnc(N2CC3(CN(C(=O)N4c5ccc(Cl)cc5OCC4C)C3)C2)nc1 (single isomer, unassigned) [20-13-A] | 
